Test results taken from patent US8026243B2, “[4,5′]Bipyrimidinyl-6,4′-diamine derivatives as protein kinase inhibitors” (Novartis AG, priority 2006, dated 2011).

These molecules were tested against T1, Ba/F3-TEL-FGFR3 cells (Homo sapiens, UniProt P22607) (assay: FGFR3 cellular assay: proliferation of transformed Ba/F3-TEL-FGFR3 cells (AlamarBlue)). Conditions: 48 hours incubation, class symbols.
T1 construct: fused on or other part: The N-terminal oligomerising part of TEL (ETV6) is fused before the intracellular kinase part of FGFR3; P41212 (Transcription factor ETV6)
T1 sequence (P22607 whole entry, change not shown, the tested form may be a part): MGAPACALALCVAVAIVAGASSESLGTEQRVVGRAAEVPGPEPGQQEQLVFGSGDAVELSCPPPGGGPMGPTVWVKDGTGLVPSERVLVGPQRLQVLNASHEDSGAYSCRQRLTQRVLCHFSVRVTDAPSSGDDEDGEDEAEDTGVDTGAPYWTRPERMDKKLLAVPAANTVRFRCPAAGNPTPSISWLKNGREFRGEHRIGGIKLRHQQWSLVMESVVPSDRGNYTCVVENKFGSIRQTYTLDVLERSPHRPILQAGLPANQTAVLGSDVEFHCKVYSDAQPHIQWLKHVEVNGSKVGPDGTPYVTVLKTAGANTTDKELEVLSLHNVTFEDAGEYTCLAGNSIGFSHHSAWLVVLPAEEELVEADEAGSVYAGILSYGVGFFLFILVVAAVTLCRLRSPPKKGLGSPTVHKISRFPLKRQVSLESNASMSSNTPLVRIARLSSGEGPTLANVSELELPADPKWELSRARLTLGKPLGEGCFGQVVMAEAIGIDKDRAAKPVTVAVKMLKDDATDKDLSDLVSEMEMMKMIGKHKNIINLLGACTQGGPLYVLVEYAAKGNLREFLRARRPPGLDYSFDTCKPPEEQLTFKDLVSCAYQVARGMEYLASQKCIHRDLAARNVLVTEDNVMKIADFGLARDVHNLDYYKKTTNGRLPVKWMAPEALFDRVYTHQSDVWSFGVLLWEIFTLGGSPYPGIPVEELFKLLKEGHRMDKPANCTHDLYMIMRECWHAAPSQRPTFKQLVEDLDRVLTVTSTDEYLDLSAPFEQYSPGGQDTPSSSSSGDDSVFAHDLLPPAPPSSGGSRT
Type: cell-based
Protocol: Compounds of the invention are tested for their ability to inhibit transformed Ba/F3-TEL-FGFR3 cells proliferation, which is dependent on FGFR3 cellular kinase activity. Ba/F3-TEL-FGFR3 are cultured up to 800,000 cells/mL in suspension, with RPMI 1640 supplemented with 10% fetal bovine serum as the culture medium. Cells are dispensed into 384-well format plate at 5000 cell/well in […], culture medium. Compounds of the invention are dissolved and diluted in dimethylsulfoxide (DMSO). Twelve points 1:3 serial dilutions are made into DMSO to create concentrations gradient ranging typically from 10 mM to 0.05 μM. Cells are added with 50 nL of diluted compounds and incubated for 48 hours in cell culture incubator. AlamarBlue® (TREK Diagnostic Systems), which can be used to monitor the reducing environment created by proliferating cells, are added to cells at final concentration of 10%. After additional four hours of incubation in a 37° C. cell culture incubator, fluorescence signals from reduced AlamarBlue® (Excitation at 530 nm, Emission at 580 nm) are quantified on Analyst GT (Molecular Devices Corp.). IC50 values are calculated by linear regression analysis of the percentage inhibition of each compound at 12 concentrations.

SMILES | GI50
CCNC(=O)c1cc(OC)c(Cl)c(Nc2ncncc2-c2cc(Nc3ccc(N4CCN(CC)CC4)cn3)ncn2)c1Cl [Compound 42, 2,4-Dichloro-N-ethyl-3-{6-[5-(4-ethyl-piperazin-1-yl)-pyridin-2-ylamino]-[4,5′]bipyrimidinyl-4′-ylamino}-5-methoxy-benzamide] | < 100 nM
COc1cc(OC)c(Cl)c(Nc2ncncc2-c2cc(Nc3cc(CN4CCCC4)ccn3)ncn2)c1F [Compound 60, N4′-(2-Chloro-6-fluoro-3,5-dimethoxy-phenyl)-N6-(4-pyrrolidin-1-ylmethyl-pyridin-2-yl)-[4,5′]bipyrimidinyl-6,4′-diamine] | < 100 nM
COC(=O)c1cc(OC)c(Cl)c(Nc2ncncc2-c2cc(Nc3ccc(CN4CCOCC4)cn3)ncn2)c1Cl [Compound 27, 2,4-Dichloro-5-methoxy-3-[6-(5-morpholin-4-ylmethyl-pyridin-2-ylamino)-[4,5′]bipyrimidinyl-4′-ylamino]-benzoic acid methyl ester] | < 100 nM
CCN1CCN(c2ccc(Nc3cc(-c4cncnc4Nc4c(F)c(OC)cc(OC)c4F)ncn3)nc2)CC1 [Compound 62, N4′-(2,6-Difluoro-3,5-dimethoxy-phenyl)-N6-[5-(4-ethyl-piperazin-1-yl)-pyridin-2-yl]-[4,5′]bipyrimidinyl-6,4′-diamine] | < 100 nM
COc1cc(OC)c(Cl)c(Nc2nc(C)ncc2-c2cc(Nc3ccc(CN4CCOCC4)cn3)ncn2)c1F [Compound 91, N4′-(2-Chloro-6-fluoro-3,5-dimethoxy-phenyl)-2′-methyl-N6-(5-morpholin-4-ylmethyl-pyridin-2-yl)-[4,5′]bipyrimidinyl-6,4′-diamine] | < 100 nM
CCNC(=O)c1cc(OC)c(Cl)c(Nc2ncncc2-c2cc(Nc3ccc(CN4CCOCC4)cn3)ncn2)c1Cl [Compound 24, 2,4-Dichloro-N-ethyl-5-methoxy-3-[6-(5-morpholin-4-ylmethyl-pyridin-2-ylamino)-[4,5′]bipyrimidinyl-4′-ylamino]-benzamide] | < 100 nM
COc1cc(OC)c(F)c(Nc2ncncc2-c2cc(Nc3cccc(C(C)O)c3)ncn2)c1F (stereo not drawn) [Compound 78, 1-{3-[4′-(2,6-Difluoro-3,5-dimethoxy-phenylamino)-[4,5′]bipyrimidinyl-6-ylamino]-phenyl}-ethanol] | < 100 nM
CCN1CCN(Cc2ccc(Nc3cc(-c4cncnc4Nc4c(F)c(OC)cc(OC)c4Cl)ncn3)nc2)CC1 [Compound 45, N4′-(2-Chloro-6-fluoro-3,5-dimethoxy-phenyl)-N6-[5-(4-ethyl-piperazin-1-ylmethyl)-pyridin-2-yl]-[4,5′]bipyrimidinyl-6,4′-diamine] | < 100 nM
CCN1CCN(c2ccc(Nc3cc(-c4cncnc4Nc4c(Cl)c(OC)cc(C(=O)NC5CC5)c4Cl)ncn3)nc2)CC1 [Compound 55, 2,4-Dichloro-N-cyclopropyl-3-{6-[5-(4-ethyl-piperazin-1-yl)-pyridin-2-ylamino]-[4,5′]bipyrimidinyl-4′-ylamino}-5-methoxy-benzamide] | < 100 nM
CCN1CCN(Cc2ccc(Nc3cc(-c4cncnc4Nc4cc(OC)cc(OC)c4F)ncn3)nc2)CC1 [Compound 69, N6-[5-(4-Ethyl-piperazin-1-ylmethyl)-pyridin-2-yl]-N4′-(2-fluoro-3,5-dimethoxy-phenyl)-[4,5′]bipyrimidinyl-6,4′-diamine] | < 100 nM
COc1cc(OC)c(Cl)c(Nc2ncncc2-c2cc(Nc3ccc(CN4CCN(CCO)CC4)cn3)ncn2)c1Cl [Compound 75, 2-(4-{6-[4′-(2,6-Dichloro-3,5-dimethoxy-phenylamino)-[4,5′]bipyrimidinyl-6-yl-amino]-pyridin-3-ylmethyl}-piperazin-1-yl)-ethanol] | < 100 nM
COc1cc(C(=O)NC2CC2)c(Cl)c(Nc2ncncc2-c2cc(Nc3ccc(CN4CCOCC4)cn3)ncn2)c1Cl [Compound 57, 2,4-Dichloro-N-cyclopropyl-5-methoxy-3-[6-(5-morpholin-4-ylmethyl-pyridin-2-ylamino)-[4,5′]bipyrimidinyl-4′-ylamino]-benzamide] | < 100 nM
COc1cc(OC)c(Cl)c(Nc2ncncc2-c2cc(NCCCCN(C)C)ncn2)c1Cl [Compound 13, N4′-(2,6-Dichloro-3,5-dimethoxy-phenyl)-N6-(4-dimethylamino-butyl)-[4,5′]bipyrimidinyl-6,4′-diamine] | 250 to 500 nM
COc1cc(OC)c(Cl)c(Nc2ncncc2-c2cc(Nc3ccc(CN4CCN(C(=O)CO)CC4)cn3)ncn2)c1Cl [Compound 87, 1-(4-{6-[4′-(2,6-Dichloro-3,5-dimethoxy-phenylamino)-[4,5′]bipyrimidinyl-6-ylamino]-pyridin-3-ylmethyl}-piperazin-1-yl)-2-hydroxy-ethanone] | < 100 nM
COC(=O)c1cc(OC)c(Cl)c(Nc2ncncc2-c2cc(N)ncn2)c1Cl [Compound 23, 3-(6-Amino-[4,5′]bipyrimidinyl-4′-ylamino)-2,4-dichloro-5-methoxy-benzoic acid methyl ester] | 250 to 500 nM
COc1cc(Nc2ncncc2-c2cc(Nc3ccc(CN4CCOCC4)cn3)ncn2)c(F)c(OC)c1 [Compound 68, N4′-(2-Fluoro-3,5-dimethoxy-phenyl)-N6-(5-morpholin-4-ylmethyl-pyridin-2-yl)-[4,5′]bipyrimidinyl-6,4′-diamine] | < 100 nM
COc1cc(OC)c(Cl)c(Nc2ncncc2-c2cc(Nc3ccc(CN(C)C)cn3)ncn2)c1Cl [Compound 7, N4′-(2,6-Dichloro-3,5-dimethoxy-phenyl)-N6-(5-dimethylaminomethyl-pyridin-2-yl)-[4,5′]bipyrimidinyl-6,4′-diamine] | < 100 nM
CNC(=O)N1CCN(Cc2ccc(Nc3cc(-c4cncnc4Nc4c(Cl)c(OC)cc(OC)c4Cl)ncn3)nc2)CC1 [Compound 20, 4-{6-[4′-(2,6-Dichloro-3,5-dimethoxy-phenylamino)-[4,5′]bipyrimidinyl-6-ylamino]-pyridin-3-ylmethyl}-piperazine-1-carboxylic acid methylamide] | < 100 nM
COc1cc(OC)c(Cl)c(Nc2ncncc2-c2cc(Nc3cncc(CN4CCOCC4)c3)ncn2)c1Cl [Compound 21, N4′-(2,6-Dichloro-3,5-dimethoxy-phenyl)-N6-(5-morpholin-4-ylmethyl-pyridin-3-yl)-[4,5′]bipyrimidinyl-6,4′-diamine] | 250 to 500 nM
COc1cc(OC)c(Cl)c(Nc2ncncc2-c2cc(NC(=O)NCCN3CCOCC3)ncn2)c1Cl [Compound 9, 1-[4′-(2,6-Dichloro-3,5-dimethoxy-phenylamino)-[4,5′]bipyrimidinyl-6-yl]-3-(2-morpholin-4-yl-ethyl)-urea] | < 100 nM
CCN(CC)CCOc1ccc(Nc2cc(-c3cncnc3Nc3c(Cl)c(OC)cc(OC)c3Cl)ncn2)cc1 [Compound 17, N4′-(2,6-Dichloro-3,5-dimethoxy-phenyl)-N6-[4-(2-diethylamino-ethoxy)-phenyl]-[4,5′]bipyrimidinyl-6,4′-diamine] | < 100 nM
CCN1CCN(Cc2ccc(Nc3cc(-c4cncnc4Nc4c(C)c(OC)cc(OC)c4Cl)ncn3)nc2)CC1 [Compound 53, N4′-(2-Chloro-3,5-dimethoxy-6-methyl-phenyl)-N6-[5-(4-ethyl-piperazin-1-ylmethyl)-pyridin-2-yl]-[4,5′]bipyrimidinyl-6,4′-diamine] | < 100 nM
COc1cc(OC)c(Cl)c(Nc2ncncc2-c2cc(Nc3ccc(CN4CCOCC4)cn3)ncn2)c1F [Compound 44, N4′-(2-Chloro-6-fluoro-3,5-dimethoxy-phenyl)-N6-(5-morpholin-4-ylmethyl-pyridin-2-yl)-[4,5′]bipyrimidinyl-6,4′-diamine] | < 100 nM
COc1cc(OC)c(F)c(Nc2ncncc2-c2cc(Nc3ccc(CN4CCN(C(=O)CO)CC4)cn3)ncn2)c1F [Compound 89] | < 100 nM
COc1ccc(F)c(Nc2nccnc2-c2cc(Nc3cc(CN4CCOCC4)ccn3)ncn2)c1F [Compound 105, {6-[3-(2,6-Difluoro-3-methoxy-phenylamino)-pyrazin-2-yl]-pyrimidin-4-yl}-(4-(morpholin-4-ylmethyl)-pyridin-2-yl)-amine] | < 100 nM
COc1cc(OC)c(F)c(Nc2ncncc2-c2cc(Nc3cc(CN4CCOCC4)ccn3)ncn2)c1F [Compound 65, N4′-(2,6-Difluoro-3,5-dimethoxy-phenyl)-N6-(4-morpholin-4-ylmethyl-pyridin-2-yl)-[4,5′]bipyrimidinyl-6,4′-diamine] | < 100 nM
COc1cc(OC)c(Cl)c(Nc2nccnc2-c2cc(Nc3ccc(CN4CCN(CCO)CC4)cn3)ncn2)c1Cl [Compound 100] | < 100 nM
COc1cc(OC)c(Cl)c(Nc2ncncc2-c2cc(Nc3ccc(CN4CCN(C(=O)N(C)C)CC4)cn3)ncn2)c1Cl [Compound 19, 4-{6-[4′-(2,6-Dichloro-3,5-dimethoxy-phenylamino)-[4,5′]bipyrimidinyl-6-ylamino]-pyridin-3-ylmethyl}-piperazine-1-carboxylic acid dimethyl-amide] | < 100 nM
COc1cc(OC)c(Cl)c(Nc2nccnc2-c2cc(Nc3ccc(CN4CCOCC4)cn3)ncn2)c1Cl [Compound 94, {6-[3-(2,6-Dichloro-3,5-dimethoxy-phenylamino)-pyrazin-2-yl]-pyrimidin-4-yl}-(5-morpholin-4-ylmethyl-pyridin-2-yl)-amine] | < 100 nM

Same assay, conditions: 48 hours incubation, given as bound

SMILES | GI50
Clc1cccc(Cl)c1Nc1nccnc1-c1cc(Nc2ccc(CN3CCOCC3)cn2)ncn1 [Compound 107, 6-(3-(2,6-dichlorophenylamino)pyrazin-2-yl)-N-(5-(morpholinomethyl)pyridin-2-yl)pyrimidin-4-amine] | > 500 nM
